Data: US4052403A, “2-Hydroxyimino-1,2,3,4,6,7-hexahydro-11bH-benzo [a] quinolisine derivatives” (EGYT Gyogyszervegyeszeti Gyar, priority 1975, dated 1977)
“And” between values parts separate entries of the source, which are not always exact repeats. Equal entries are not always repeated. “Also recorded” adds a separate entry of the source.

How the values were obtained:
[1] = well-known, cited from earlier work
waking cats = test: behavioural effects in waking cats, compared with scopolamine; assay type: in vivo; settings: for akinesia / standing position / behavioural effects in cats (first effects) / paralysis: s.c. 100 mg/kg isomer "b", 150 mg/kg scopolamine; for paralysis: 30 minutes after administration
Protocol: Accordingly, the effects of this "b" iosmer were compared directly with scopolamine by the use of a subcutaneous dosage of 100 mg/kg of the former and 150 mg/kg of the latter.

[2] = anticholinergic / atropine-like activity; settings: in vivo
[3] = acute toxicity, subcutaneous administration; settings: mouse, in vivo, sc, mice
Protocol: The acute toxicities of the new compounds having the general formula (I) were measured on mice, under subcutaneous administration.

[4] = system: narcosis provoked by hexobarbital; test: potentiation of the narcosis provoked by hexobarbital; settings: in vivo
waking dogs = test: behavioural effects in waking dogs, compared with scopolamine; assay type: in vivo
[5] = system: analgesic effect of morphine; test: potentiation of the analgesic effect of morphine; settings: in vivo
[6] = system: amphetamine-provoked hypermotility; test: inhibition of amphetamine-provoked hypermotility (psychosedative effect); assay type: in vivo; settings: mice, amphetamine 3 mg/kg s.c. simultaneously, control = 100%
Protocol: This conclusion was based upon experimentation with mice by measuring their inhibition ability exerted on amphetamine-provoked hypermotility. the animals so tested were treated subcutaneously with 3 mg/kg of amphetamine (α-methyl-phenethylamine)while simultaneously administering the novel compound of formula (I) herein. A control test was run in which no psychosedative agent was used. The extent of hypermotility observed in the control group treated only with 3 mg/kg of amphetamine was regarded as 100%, and the percentage of inhibition observed in the test groups was related to this value.

CN1[C@@H]2C[C@@H](OC(=O)[C@H](CO)c3ccccc3)C[C@H]1[C@@H]1O[C@@H]12 [scopolamine]
therapeutic psychosedative effects ([1]; small dosages): therapeutic psychosedative effects | side effects [1]: strong atropine-like parasympatholytic side effects | akinesia / standing position (waking cats; cats): remained in a standing position | behavioural effects in cats (first effects) (waking cats; cats): restlessness coupled with hallucinations of the same type and degree | paralysis (waking cats; cats): all animals were paralyzed | anticholinerg activity [2]: did not exert anticholinerg activity | atropine-like effect [2]: marked atropine-like effect

COc1cc2c(cc1OC)C1CC(=NO)C3CCCC3N1CC2 (stereo not shown) [2-Hydroxyimino-3,4-cyclopentano-9,10-dimethoxy-1,2,3,4,6,7-hexahydro-11bH-benzo[a]quinolisine]
LD50 [3]: > 500 mg/kg

COc1cc2c(cc1OC)C1CC(=NO)C3CCCCC3N1CC2 (stereo not shown) [2-Hydroxyimino-3,4-cyclohexano-9,10-dimethoxy-1,2,3,4,6,7-he] [2-Hydroxyimino-3,4-cyclohexano-9,10-dimethoxy-1,2,3,4,6,7-hexahydro-11bH-benzo[a]quinolisine]
potentiation of the narcosis provoked by hexobarbital [4]: nor did it potentiate the narcosis provoked by hexobarbital | symptoms in waking dogs compared with scopolamine (waking dogs): symptons similar to those os scopolamine | awakening upon smell, slight noise and tactile stimuli (waking dogs; 10 mg/kg s.c.): not a narcotic effect, for the dogs were awakened readily upon smell stimuli related to food or slight noice and tactile stimuli | behavior after awakening (waking dogs; 10 mg/kg s.c.): normal behavior after awakening | behavioural effects in waking dogs (waking dogs; 10 mg/kg s.c.): remarkable quietness and the animals fell asleep | potentiation of the analgesic effect of morphine [5]: did not potentiate the analgesic effect of morphine | Inhibition (of amphetamine-provoked hypermotility) ([6]; 20 mg/kg s.c.): 66% | Inhibition (of amphetamine-provoked hypermotility) ([6]; 100 mg/kg s.c.): 33% | akinesia / standing position (waking cats; cats): more complete akinesia than scopolamine; also recorded: could not be brought to a standing position, their limbs immediately sliding apart although the carriage of their heads remained stationary | behavioural effects in cats (first effects) (waking cats; cats): restlessness coupled with hallucinations of the same type and degree | paralysis (waking cats; cats): all animals were paralyzed | response to capsaicine dropped into the eyes (waking cats; cats, s.c., capsaicine into eyes): long-lasting blepharospasm and mewing | response to painful stimuli (waking cats; cats, s.c., painful stimuli): strong mewing response | symptoms in waking cats compared with scopolamine (waking cats; waking cats): symptons similar to those os scopolamine

COc1cc2c(cc1OC)C1CC(=NO)C3CCCC3N1CC2 (stereo not shown) [2-Hydroxyimino-3,4-cyclopentano-9,10-dimethoxy-1,2,3,4,6,7-h] [2-Hydroxyimino-3,4-cyclopentano-9,10-dimethoxy-1,2,3,4,6,7-hexahydro-11bH-benzo[a]quinolisine]
Inhibition (of amphetamine-provoked hypermotility) ([6]; 100 mg/kg s.c.): 40% and 61%

CCOc1cc2c(cc1OCC)C1CC(=NO)C3CCCCC3N1CC2 (stereo not shown) [2-Hydroxyimino-3,4-cyclohexano-9,10-diethoxy-1,2,3,4,6,7,-hexahydro-11bH-benzo[a]quinolisine]
Inhibition (of amphetamine-provoked hypermotility) ([6]; 100 mg/kg s.c.): 85% | LD50 [3]: > 300 mg/kg
